Patent US12544348B2, “Methods for treating APOE4/4-associated disorders” (The Regents of the University of California, priority 2018, dated 2026)

System: apoE4-KI mice
Experiment: Morris water maze (MWM) spatial learning and memory, aged apoE4-KI mice
Type: in vivo
From the text: Mice. All protocols and procedures followed the guidelines of the Laboratory Animal Resource Center at the University of California, San Francisco (UCSF). All mice were housed under identical conditions from birth through death (12-hour light/dark cycle, housed 5/cage, PicoLab Rodent Diet 20). All mouse lines were maintained on a C57Bl/6J background. ApoE3-KI and apoE4-KI homozygous mouse lines (Taconic)^30,31 were born and aged under normal conditions at the Gladstone Institutes/UCSF animal facility. Female apoE-KI mice were used because of their susceptibility to AD-related neuronal and behavioral deficits. The ages of the mice are indicated in the behavioral testing section of the online methods. Bumetanide treatment. Bumetanide was prepared at 220 μM in 2% DMSO in 0.9% sterile saline, adjusted to pH 8.5 with NaOH for solubility, and given by i.p. injection daily starting 6 weeks before and continuing throughout behavioral assessment. Body weight was measured weekly during bumetanide treatment; injection volume was calculated to achieve a dose of 0.02 (low) or 0.2 (high) mg bumetanide/kg body mass (e.g., 50-ul daily injection for a 20-g mouse). Control mice were injected with a matched volume of 2% DMSO in 0.9% sterile saline, pH 8.5. […] Behavioral testing. Mice were singly housed before testing. Each mouse was assigned a random number, so researchers were blinded to genotype and treatment information. At about 14 months of age, apoE3-KI and apoE4-KI mice were randomly assigned to treatment groups: apoE3-KI vehicle (n=10, age 14.01±0.44 months), apoE3-KI low bumetanide (n=11, age 14.30±0.33 months), apoE3-KI high bumetanide (n=10, age 13.74±0.22 months), apoE4-KI vehicle (n=10, age 14.10±0.35), apoE4-KI low bumetanide (n=10, age 14.70±0.27 months), apoE4-KI high bumetanide (n=9, age 13.77±0.28 months). Treatment was administered daily by i.p. injection beginning 6 weeks before and continuing throughout the 14 days of testing in the Morris water maze (MWM); injections were given at the end of the light cycle and after the day's test. The MWM pool (diameter, 122 cm) contained opaque water (22-23° C.) with a platform 10 cm in diameter. The platform was submerged 1.5 cm during hidden platform sessions^20-23,32 and marked with black-and-white-striped mast (15 cm high) during cued training sessions. Mice were trained to locate the hidden platform (hidden days 1-5) and the cued platform (visible days 1-3) in two daily sessions (3.5 h apart), each consisting of two 60-s trials (hidden and cued training) with a 15-min intertrial interval. Distal visual cues on the walls of the behavioral testing room remained constant throughout the test. Visible trials took place after training and memory probes and were 60 seconds long with a cued visible platform. The platform location remained constant in the hidden platform sessions but was changed for each cued (visible) platform session. Entry points were changed semirandomly between trials. At 24, 72, and 120 hours after the last hidden platform training, a 60-s probe trial (platform removed) was done. The entry point for the probe trial was in the southwest quadrant, and the target quadrant was the northeast quadrant. Performance was monitored with an Etho Vision video-tracking system (Noldus Information Technology). For the probe trials, the following analyses were performed (1) the percent time spent in the target quadrant versus average time spent in the three other quadrants, (2) the number of crossings over the position of the target platform versus the average number of crossings over the equivalent positions in the three other quadrants and (3) the distance to platform over the first 10 seconds. Statistical analyses. Behavior metrics are expressed as mean±SEM. All values for n are the numbers of mice or biological replicates. The distribution of data was assessed with the Shapiro-Wilk normality test; most of the data were normally distributed. […]

[1] = 16-month-old apoE4-KI mice, high dose 0.2 mg/kg daily i.p. 8 weeks
[2] = apoE4-KI mice, high dose 0.2 mg/kg daily i.p. 8 weeks

CCCCNc1cc(C(=O)O)cc(S(N)(=O)=O)c1Oc1ccccc1 [bumetanide, 3-(butylamino)-4-phenoxy-5-sulfamoylbenzoic acid]
long-term memory, 120-hour probe trial (time in target quadrant) [1]: significant preference for the target quadrant
short-term memory, 24-hour probe trial (percent time in target quadrant) [1]: rescued the short-term memory deficit
short-term memory, 24-hour probe trial (percent time in target quadrant) (16-month-old apoE4-KI mice, low dose 0.02 mg/kg daily i.p. 8 weeks): rescued the short-term memory deficit
learning curve (escape latency) in hidden platform trials (apoE4-KI mice, 0.02 or 0.2 mg/kg daily i.p. 8 weeks, vs vehicle, learning days 1-5): did not differ
platform crossings in target quadrant versus other quadrants, 24-hour probe trial [2]: significantly more platform crossings in the target quadrant
platform crossings in target quadrant versus other quadrants, 120-hour probe trial [2]: significantly more platform crossings in the target quadrant
short-term memory accuracy (platform crossings), 24-hour probe trial (apoE4-KI mice, low dose 0.02 mg/kg daily i.p. 8 weeks): trend toward significant improvement
